From ChEMBL document CHEMBL1137017, “In vitro antiviral activity and cross-resistance profile of PL-100, a novel protease inhibitor of human immunodeficiency virus type 1” (Antimicrob Agents Chemother, 2007)

How the values were obtained:
[1] = tested on: Human immunodeficiency virus 1; assay: Resistance index, ratio of EC50 for HIV1 with protease 24I/33F/54V/82A/84V mutation to EC50 for wild type HIV1 NL4-3 in HEK293 cells after 48 hrs by replication-deffective luciferase reporter gene-based phenotypic assay; assay type: functional
[2] = tested on: Human immunodeficiency virus 1; assay: Resistance index, ratio of EC50 for HIV1 with protease 33F/46L/54V/82A/84V/90M mutation to EC50 for wild type HIV1 NL4-3 in HEK293 cells after 48 hrs by replication-deffective luciferase reporter gene-based phenotypic assay; assay type: functional
[3] = tested on: Human immunodeficiency virus 1; assay: Resistance index, ratio of EC50 for HIV1 with protease 48V/82A/84V/90M mutation to EC50 for wild type HIV1 NL4-3 in HEK293 cells after 48 hrs by replication-deffective luciferase reporter gene-based phenotypic assay; assay type: functional
[4] = tested on: Human immunodeficiency virus 1; assay: Resistance index, ratio of EC50 for HIV1 with protease 46I/54V/82A/84V mutation to EC50 for wild type HIV1 NL4-3 in HEK293 cells after 48 hrs by replication-deffective luciferase reporter gene-based phenotypic assay; assay type: functional
[5] = tested on: Human immunodeficiency virus 1; assay: Resistance index, ratio of EC50 for HIV1 with protease 46I/82T/84V mutation to EC50 for wild type HIV1 NL4-3 in HEK293 cells after 48 hrs by replication-deffective luciferase reporter gene-based phenotypic assay; assay type: functional
[6] = tested on: Human immunodeficiency virus 1; assay: Resistance index, ratio of EC50 for HIV1 with protease 33F/50V mutation to EC50 for wild type HIV1 NL4-3 in HEK293 cells after 48 hrs by replication-deffective luciferase reporter gene-based phenotypic assay; assay type: functional
[7] = tested on: Human immunodeficiency virus 1; assay: Resistance index, ratio of EC50 for HIV1 with protease 37S/41K/70E mutation to EC50 for wild type HIV1 NL4-3 in HEK293 cells after 48 hrs by replication-deffective luciferase reporter gene-based phenotypic assay; assay type: functional
[8] = Cytotoxicity against human MT4 cells after 6 days by MTT assay; assay type: cell-based
[9] = tested on: Human immunodeficiency virus 1; assay: Resistance index, ratio of EC50 for HIV1 with protease 84V/90M mutation to EC50 for wild type HIV1 NL4-3 in HEK293 cells after 48 hrs by replication-deffective luciferase reporter gene-based phenotypic assay; assay type: functional
[10] = tested on: Human immunodeficiency virus 1; assay: Resistance index, ratio of EC50 for HIV1 with protease 37T/41K/70E mutation to EC50 for wild type HIV1 NL4-3 in HEK293 cells after 48 hrs by replication-deffective luciferase reporter gene-based phenotypic assay; assay type: functional
[11] = tested on: Human immunodeficiency virus 1; assay: Resistance index, ratio of EC50 for HIV1 with protease 30N/88D/90M mutation to EC50 for wild type HIV1 NL4-3 in HEK293 cells after 48 hrs by replication-deffective luciferase reporter gene-based phenotypic assay; assay type: functional
[12] = tested on: Human immunodeficiency virus 1; assay: Resistance index, ratio of EC50 for non-B type HIV1 with protease 46I/47V/84V mutation to EC50 for wild type HIV1 NL4-3 in HEK293 cells after 48 hrs by replication-deffective luciferase reporter gene-based phenotypic assay; assay type: functional
[13] = tested on: Human immunodeficiency virus 1; assay: Resistance index, ratio of EC50 for HIV1 with protease 32I/46I/47V/50L mutation to EC50 for wild type HIV1 NL4-3 in HEK293 cells after 48 hrs by replication-deffective luciferase reporter gene-based phenotypic assay; assay type: functional
[14] = tested on: Human immunodeficiency virus 1; assay: Resistance index, ratio of EC50 for HIV1 with protease 46I/82A/84V/90M mutation to EC50 for wild type HIV1 NL4-3 in HEK293 cells after 48 hrs by replication-deffective luciferase reporter gene-based phenotypic assay; assay type: functional
[15] = tested on: Human immunodeficiency virus 1; assay: Antiviral activity against wild type HIV1 NL4-3 in HEK293 cells after 48 hrs by replication-deffective luciferase reporter gene-based phenotypic assay; assay type: functional, organism-based; details: Human immunodeficiency virus 1, NL4-3, HEK293, 48 h
[16] = tested on: Human immunodeficiency virus 1; assay: Resistance index, ratio of EC50 for HIV1 with protease 54V/82A mutation to EC50 for wild type HIV1 NL4-3 in HEK293 cells after 48 hrs by replication-deffective luciferase reporter gene-based phenotypic assay; assay type: functional
[17] = tested on: Human immunodeficiency virus 1; assay: Resistance index, ratio of EC50 for HIV1 with protease 33F/54V/82A/84V mutation to EC50 for wild type HIV1 NL4-3 in HEK293 cells after 48 hrs by replication-deffective luciferase reporter gene-based phenotypic assay; assay type: functional
[18] = tested on: Human immunodeficiency virus 1; assay: Resistance index, ratio of EC50 for HIV1 with protease 33F/54V/73S/82A/84V/90M mutation to EC50 for wild type HIV1 NL4-3 in HEK293 cells after 48 hrs by replication-deffective luciferase reporter gene-based phenotypic assay; assay type: functional
[19] = tested on: Human immunodeficiency virus 1; assay: Resistance index, ratio of EC50 for HIV1 with protease 54V/82A/84V/90M mutation to EC50 for wild type HIV1 NL4-3 in HEK293 cells after 48 hrs by replication-deffective luciferase reporter gene-based phenotypic assay; assay type: functional
[20] = tested on: Human immunodeficiency virus 1; assay: Resistance index, ratio of EC50 for HIV1 with protease 24I/33F/46I/54L/82A mutation to EC50 for wild type HIV1 NL4-3 in HEK293 cells after 48 hrs by replication-deffective luciferase reporter gene-based phenotypic assay; assay type: functional
[21] = tested on: Human immunodeficiency virus 1; assay: Resistance index, ratio of EC50 for HIV1 with protease 46L/48V/82A/84V mutation to EC50 for wild type HIV1 NL4-3 in HEK293 cells after 48 hrs by replication-deffective luciferase reporter gene-based phenotypic assay; assay type: functional
[22] = tested on: Human immunodeficiency virus 1; assay: Resistance index, ratio of EC50 for HIV1 with protease 33F/54V/73S/82A/90M mutation to EC50 for wild type HIV1 NL4-3 in HEK293 cells after 48 hrs by replication-deffective luciferase reporter gene-based phenotypic assay; assay type: functional
[23] = tested on: Human immunodeficiency virus 1; assay: Antiviral activity against wild type HIV1 NL4-3 infected in MT4 cells after 6 days by MTT assay; assay type: functional, organism-based; details: Human immunodeficiency virus 1, NL4-3, MT4, 144 h
[24] = tested on: Human immunodeficiency virus 1; assay: Resistance index, ratio of EC50 for HIV1 with protease 46L/50L/54V/82A mutation to EC50 for wild type HIV1 NL4-3 in HEK293 cells after 48 hrs by replication-deffective luciferase reporter gene-based phenotypic assay; assay type: functional
[25] = tested on: Human immunodeficiency virus 1; assay: Resistance index, ratio of EC50 for HIV1 with protease 33F/54L/88S/90M mutation to EC50 for wild type HIV1 NL4-3 in HEK293 cells after 48 hrs by replication-deffective luciferase reporter gene-based phenotypic assay; assay type: functional
[26] = tested on: Human immunodeficiency virus 1; assay: Resistance index, ratio of EC50 for HIV1 with protease 33I/46I/84V/90M mutation to EC50 for wild type HIV1 NL4-3 in HEK293 cells after 48 hrs by replication-deffective luciferase reporter gene-based phenotypic assay; assay type: functional
[27] = tested on: Human immunodeficiency virus 1; assay: Resistance index, ratio of EC50 for HIV1 with protease 54V/84V mutation to EC50 for wild type HIV1 NL4-3 in HEK293 cells after 48 hrs by replication-deffective luciferase reporter gene-based phenotypic assay; assay type: functional
Cathepsin D = Cathepsin D (Homo sapiens, UniProt P07339); assay: Inhibition of human cathepsin D
[28] = target: Protease (Human immunodeficiency virus 1) (UniProt Q9YQ12); assay: Inhibition of HIV1 3B protease-mediated gag polyprotein processing in H9 cells assessed as decrease in p24 level by Western blotting; assay type: cell-based
Chain of Protease (Human immunodeficiency virus 1) (Q9YQ12 as listed by the source): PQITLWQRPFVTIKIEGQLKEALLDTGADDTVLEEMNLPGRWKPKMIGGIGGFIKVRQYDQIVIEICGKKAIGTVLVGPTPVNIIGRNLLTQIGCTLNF

Chain of Cathepsin D (P07339 65-162 limits assumed): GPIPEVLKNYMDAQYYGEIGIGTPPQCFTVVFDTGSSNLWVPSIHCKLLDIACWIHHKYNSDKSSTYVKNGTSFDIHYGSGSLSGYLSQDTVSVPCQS
Chain of Cathepsin D (P07339 169-412 limits assumed): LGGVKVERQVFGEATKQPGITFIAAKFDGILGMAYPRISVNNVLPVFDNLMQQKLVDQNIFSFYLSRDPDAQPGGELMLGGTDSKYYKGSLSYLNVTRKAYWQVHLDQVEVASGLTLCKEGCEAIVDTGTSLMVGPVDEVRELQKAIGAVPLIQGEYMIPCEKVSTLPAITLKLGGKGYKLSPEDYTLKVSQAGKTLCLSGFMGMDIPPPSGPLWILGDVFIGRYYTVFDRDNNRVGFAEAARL

## Cc1c(O)cccc1C(=O)N[C@@H](CSc1ccccc1)[C@H](O)CN1C[C@H]2CCCC[C@H]2C[C@H]1C(=O)NC(C)(C)C
[1]
  Ratio EC50: 31.4
[2]
  Ratio EC50: 31.4
[3]
  Ratio EC50: 27.3
[4]
  Ratio EC50: 8.8
[5]
  Ratio EC50: 1.6
[6]
  Ratio EC50: 3.6
[7]
  Ratio EC50: 1.6
[8]
  CC50 at 144 h: 8000 nM
[9]
  Ratio EC50: 12.1
[10]
  Ratio EC50: 1.9
[11]
  Ratio EC50: 42.1
[12]
  Ratio EC50: 5.1
[13]
  Ratio EC50: 3.5
[14]
  Ratio EC50: 11.2
[15]
  EC50: 5.8 nM
[16]
  Ratio EC50: 12.1
[17]
  Ratio EC50: 5.8
[18]
  Ratio EC50: 172.1
[19]
  Ratio EC50: 33.1
[20]
  Ratio EC50: 8.1
[21]
  Ratio EC50: 5.9
[22]
  Ratio EC50: 20
[23]
  EC50: 29 nM
[24]
  Ratio EC50: 11.8
[25]
  Ratio EC50: 14.5
[26]
  Ratio EC50: 28.5
[27]
  Ratio EC50: 15

## COC(=O)N[C@H](C(=O)N[C@@H](Cc1ccccc1)[C@@H](O)CN(Cc1ccc(-c2ccccn2)cc1)NC(=O)[C@@H](NC(=O)OC)C(C)(C)C)C(C)(C)C [ATAZANAVIR]
[3]
  Ratio EC50: 57.7
[4]
  Ratio EC50: 5.8
[7]
  Ratio EC50: 1.4
[8]
  CC50 at 144 h: 71000 nM
[10]
  Ratio EC50: 1.5
[12]
  Ratio EC50: 7.1
[13]
  Ratio EC50: 81.2
[14]
  Ratio EC50: 3.8
[15]
  EC50: 1.5 nM
[16]
  Ratio EC50: 3.9
[17]
  Ratio EC50: 5.5
[19]
  Ratio EC50: 50.5
[21]
  Ratio EC50: 21.5
[22]
  Ratio EC50: 11.9
[23]
  EC50: 4 nM
[24]
  Ratio EC50: 68.9
[25]
  Ratio EC50: 18.9
[26]
  Ratio EC50: 7.5
[27]
  Ratio EC50: 8.3

## COC(=O)N[C@H](C(=O)NCCCC[C@@H](CO)N(CC(C)C)S(=O)(=O)c1ccc(N)cc1)C(c1ccccc1)c1ccccc1 [PPL-100]
[1]
  Ratio EC50: 4.2
[2]
  Ratio EC50: 18.4
[3]
  Ratio EC50: 13.5
[4]
  Ratio EC50: 3.7
[5]
  Ratio EC50: 1.2
[6]
  Ratio EC50: 2.7
[7]
  Ratio EC50: 0.9
Cathepsin D
  IC50: > 50000 nM
[8]
  CC50 at 144 h: 37000 nM
[9]
  Ratio EC50: 2.3
[10]
  Ratio EC50: 1.9
[11]
  Ratio EC50: 1.4
[12]
  Ratio EC50: 4.3
[13]
  Ratio EC50: 1.1
[14]
  Ratio EC50: 10.1
[15]
  EC50: 5.3 nM
[16]
  Ratio EC50: 1.8
[17]
  Ratio EC50: 3.4
[28]
  Activity: Dose-dependent effect
[18]
  Ratio EC50: 37.2
[19]
  Ratio EC50: 7
[20]
  Ratio EC50: 6.4
[21]
  Ratio EC50: 1.2
[22]
  Ratio EC50: 5.3
[23]
  EC50: 16 nM
[24]
  Ratio EC50: 3.2
[25]
  Ratio EC50: 1.7
[26]
  Ratio EC50: 3.4
[27]
  Ratio EC50: 0.8
